Results published in PubChem BioAssay AID2305 (GlaxoSmithKline (GSK), 2010).
Values joined by “and” are separate entries in the source; they are usually repeats but may differ in a detail not shown here. Identical values can stand only once.

tested on: P. falciparum 3D7 growth, pLDH absorbance; test: P. falciparum 3D7 growth inhibition, dose response, strain 3D7 (AID 2305)

`CC1(C)N=C(N)N=C(N)N1c1ccc([N+](=O)[O-])cc1` and `CC1(C)N=C(N)N=C(N)N1c1ccccc1` are within 1.5-fold of each other in IC50: 230 nM for the first, 330 nM for the second.

`COc1ccc(NC(=O)CCNc2cc(C)nc(NCCc3ccccc3)n2)cc1` and `Oc1ccc(CCNc2nc(NCCCOc3cccc(-c4ccccc4)c3)nc(N3CCNCC3)n2)cc1` are within 1.5-fold of each other in IC50: 1160 nM for the first, 1130 nM for the second.

Going from `CC(=O)NCCNc1cc(N2CCc3ncnc(Nc4ccc(OCc5c(F)cccc5F)c(Cl)c4)c3C2)ncn1` to `COCCOc1ccc(Nc2nccc(-c3c(-c4cccc(NC(=O)c5c(F)cccc5F)c4)nn4ccccc34)n2)cc1F`, the IC50 rises from 160 nM to 950 nM (5.9-fold). The first is the more potent here.

`COC(=O)Nc1nc2cc3c(cc2s1)OCCO3` and `CC1CCc2sc(-c3nnc(SC(C)C(=O)NC4CC4)o3)cc2C1` (centres undefined) are within 1.5-fold of each other in IC50: 840 nM for the first, 1210 nM for the second.

`CC(C)[C@H](NC(=O)c1ccc(O)c(-c2ccc(Cl)c(Cl)c2)c1)C(=O)NCCN1CCOCC1` and `O=C(Nc1cc(Cl)ccc1Cl)N[C@H]1CCN(CCCCCNC(=O)[C@@H]2C[C@H]2c2ccc(Cl)c(Cl)c2)C1` are within 1.5-fold of each other in IC50: 910 nM for the first, 770 nM for the second.

`O=C(Nc1cccc(F)c1)c1ccc(C(=O)NC2CCN(CC3CCCCC3)CC2)cc1` and `O=C(NCCCCN1CCC(c2ccc3c(c2OCc2ccccn2)CCCC3)CC1)c1ccc(NC(=O)c2ccc(Cl)cc2)cc1` are within 1.5-fold of each other in IC50: 860 nM for the first, 800 nM for the second.

First: CC(O)C1CCCCN1C(=O)c1cccc(-c2ccc(-c3nc4ccc(C(F)(F)F)cc4[nH]3)cc2)c1 (centres undefined)
Second: Cn1nccc1C(=O)NCCNCc1cccc(-c2ccc(-c3nc4ccc(C(F)(F)F)cc4[nH]3)cc2)c1
The IC50 of the first is 5.8-fold higher: 690 nM for the first, 120 nM for the second.

Compared with `CC(=O)Nc1nc(C(=O)Nc2cccc(-c3ccc(-c4nc5c(C)cccc5[nH]4)cc3)c2)cs1`, `Cc1cccc2[nH]c(-c3cccc(-c4cccc(NC(=O)Nc5ccc(Cl)c(Cl)c5)c4)c3)nc12` is 1.6-fold higher in IC50: 230 nM for the first, 370 nM for the second.

Going from `COc1ccc2nccc([C@@H](O)CN3CCC(NCc4nc5cc(F)ccc5o4)CC3)c2c1` to `Cc1cc(NC(=O)c2ccco2)ccc1OC1CCN(Cc2ccc(F)cc2)CC1`, the IC50 rises from 150 nM to 590 nM (3.9-fold).

`CN(C(=O)NCCc1ccccc1)C1CCN(CCCCCNC(=O)/C=C/c2ccc(Cl)c(Cl)c2)CC1` and `O=C(/C=C/c1ccc(Cl)c(Cl)c1)NCCCCCN1CCCN(C(=O)Nc2ccc(Cl)cc2)CC1` are within 1.5-fold of each other in IC50: 680 nM for the first, 740 nM for the second.

`CC(C)COc1ccc(Cl)cc1Cc1ccc(-c2nc3ccc(F)cc3[nH]2)o1` and `NC1CCN(Cc2cccc(-c3ccc(-c4nc5ccc(F)cc5[nH]4)cc3)c2)C1` (centres undefined) are within 1.5-fold of each other in IC50: 850 nM for the first, 600 nM for the second.

Going from `COc1ccc(CNCc2cccc(-c3csc(-c4nc5ccccc5[nH]4)c3)c2)cc1` to `c1ccc(-n2ncc(CNCc3ccc(-c4ccc(-c5nc6ccccc6[nH]5)s4)cc3)n2)cc1`, the IC50 rises from 650 nM to 1400 nM (2.2-fold).

`Cc1[nH]c(C)c(-c2ccc(OCCn3cnc(Cl)c3Cl)cc2)c(=O)c1Br` and `Cc1cc(=O)c(-c2cccc(Oc3ccc(Cl)cc3)c2)c(C)[nH]1` are within 1.5-fold of each other in IC50: 850 nM for the first, 740 nM for the second.

Going from `COc1cc2nc(NCc3cccc(CNC(=O)c4ccc(-c5ccc(C(C)=O)cc5)cc4)c3)nc(N)c2cc1OC` to `COc1cc2nc(N3CC(C)N(C(=O)Cc4ccc(-c5ccccc5)cc4)C(C)C3)nc(N)c2cc1OC` (centres undefined), the IC50 rises from 120 nM to 800 nM (6.7-fold).

First: CCC1(C)N=C(N)N=C(N)N1c1ccccc1 (centres undefined)
Second: CCc1nc(N)nc(N)c1-c1cccc(Cl)c1
The IC50 of the first is 4.2-fold higher: 790 nM for the first, 190 nM for the second.

`Nc1c2c(nc3ccc(NC(=O)Cc4ccccc4)cc13)CCCC2` and `Nc1ncnc2cc(-c3cccc(NC(=O)Nc4ccccc4)c3)sc12` are within 1.5-fold of each other in IC50: 760 nM for the first, 710 nM for the second.

Compared with `Cc1cc(N2Cc3ccccc3C2)nc(Nc2cccc(C#N)c2)n1`, `COc1cccc(C(O)CNc2ccnc(Nc3cccc(-c4csc(C)n4)c3)n2)c1` (centres undefined) is 4.6-fold higher in IC50: 170 nM for the first, 790 nM for the second. The first is the more potent here.

Compared with `Fc1ccccc1CNc1ncc(-c2ccsc2)c(-c2nccs2)n1`, `OC(CNc1ccnc(Nc2cccc(Cl)c2)n1)c1ccccc1C(F)(F)F` (centres undefined) is 18-fold higher in IC50: 50 nM for the first, 900 nM for the second.

`NC(=NCc1ccc(O)cc1)Nc1nc(-c2ccc(OCCCn3ccnc3)cc2)cs1` and `CC(C)NCc1ccc(-c2cccc(NC(=O)c3ccc(C#N)cc3)c2)cc1` are within 1.5-fold of each other in IC50: 750 nM for the first, 740 nM for the second.

First: Cc1c(Br)cc2[nH]c(-c3ccc(C(=O)NC4CCN(Cc5ccccc5)CC4)cc3)nc2c1C
Second: N#Cc1ccc(CN2CCC(NC(=O)c3ccc(-c4nnc(-c5cccc6ccccc56)o4)cc3)CC2)cc1
The IC50 of the first is 2.1-fold lower: 330 nM for the first, 680 nM for the second. The first is the more potent here.

`CCOC(=O)CN1Cc2cc(NCc3ccc4ccc5nc(C)[nH]c(=O)c5c4c3)ccc2C1=O` and `Cc1nc2ccc(S(=O)(=O)Nc3ccc(C(=O)N[C@@H](CCC(=O)O)C(=O)O)cc3)cc2c(=O)[nH]1` are within 1.5-fold of each other in IC50: 700 nM for the first, 1010 nM for the second.

`c1ccc2c(C3CCN(CCCCOc4ccc5c(c4)CCN(C4CCC4)CC5)CC3)c[nH]c2c1` and `CC(=O)Nc1ccc2[nH]cc(C3CCN(CC4CCN(C(=O)/C=C/c5ccc(Cl)c(Cl)c5)CC4)CC3)c2c1` are within 1.5-fold of each other in IC50: 710 nM for the first, 720 nM for the second.

`CN(C)Cc1ccc(-c2ccc3c(Nc4ccc(Oc5ccccc5)cc4)ccnc3c2)o1` and `COc1ccc(Nc2nc(NN=Cc3ccc(-c4ccc([N+](=O)[O-])cc4)o3)nc(Nc3ccccc3)n2)cc1` are within 1.5-fold of each other in IC50: 790 nM for the first, 760 nM for the second.

First: Oc1ccc(Br)cc1C(O)CNCc1ccccc1OCc1ccccc1 (centres undefined)
Second: O=c1cc(NCCCNCc2cn(S(=O)(=O)c3ccccc3)c3ccccc23)[nH]c2ccccc12
The IC50 of the first is 5.2-fold lower: 170 nM for the first, 880 nM for the second.

Compared with `NC(=O)C1Cc2ccccc2CN1CC(=O)Nc1ccccc1Sc1ccccc1` (centres undefined), `O=C(NCCN1Cc2ccccc2C1=O)c1ccc(Oc2ccc(C(=O)NCCN3Cc4ccccc4C3=O)cc2)cc1` is 5.1-fold higher in IC50: 70 nM for the first, 360 nM for the second. The first is the more potent here.

Compared with `CCCCCCNC(=O)C1Cc2c([nH]c3ccc(Br)cc23)C2(CCN(Cc3ccccc3)CC2)N1` (centres undefined), `CN(CCCCCNC(=O)/C=C/c1ccc(Cl)c(Cl)c1)CCCCc1c[nH]c2ccccc12` is 1.5-fold higher in IC50: 720 nM for the first, 1080 nM for the second. The first is the more potent here.

`CNC(=O)C(NC(=O)c1ccccc1C(=O)OC)c1ccccc1` (centres undefined) and `CCCN(CCC)C(=O)c1cc(C(=O)N[C@@H](Cc2ccccc2)[C@H](O)CNCc2cccc(OC)c2)cc(N2CCCCS2(=O)=O)c1` are within 1.5-fold of each other in IC50: 560 nM for the first, 550 nM for the second.

`CC[C@H](C)CNC(=O)c1cccc(-c2cccc(CNCC3CNCCCO3)c2)n1` (some centres undefined) and `C[C@H]1CN(Cc2cccc(-c3cc(CNC(=O)c4cccc(CN5CCN(CCOc6ccccc6)CC5)c4)ccc3F)c2)CCN1` are within 1.5-fold of each other in IC50: 1080 nM for the first, 1110 nM for the second.

`COc1ccc(C2CNCc3c2cc(OC)c(OC)c3Cl)cc1` (centres undefined) and `COc1cc(OC)cc(-c2nn(-c3ccc([N+](=O)[O-])cc3C#N)c(=S)n2CC2CCCO2)c1` (centres undefined) are within 1.5-fold of each other in IC50: 730 nM for the first, 850 nM for the second.

First: CN(C)CCCOc1c(C(C)(C)C)cc(-c2cc(C(C)(C)C)c(OCCCN(C)C)c(C(C)(C)C)c2)cc1C(C)(C)C
Second: CC(CN(C)C)C(=O)Nc1cccc(-c2ccc(-c3nc4ccccc4[nH]3)cc2)c1 (centres undefined)
The IC50 of the first is 2.6-fold lower: 270 nM for the first, 710 nM for the second.

Going from `CS(=O)(=O)c1ccc(CNCc2ccc(-c3ccc(-c4nc5ccc(F)cc5[nH]4)s3)cc2)cc1` to `CNC(=O)Cc1ccc(C(=O)Nc2cccc(-c3cccc(-c4nc5ccc(C(F)(F)F)cc5[nH]4)c3)c2)cc1`, the IC50 rises from 270 nM to 440 nM (1.6-fold).

Compared with `Nc1nc(N)c2c(ccc3c2cnn3Cc2cccnc2)n1`, `CC(C)c1cc2c(ccc3nc(N)nc(N)c32)o1` is 1.8-fold higher in IC50: 50 nM for the first, 90 nM for the second.

Going from `CCOC(=O)c1ccc(NC(=O)Nc2ccc(-c3ccc(-c4nc5ccccc5[nH]4)cc3)cc2)cc1` to `COc1ccc(NC(=O)N2CCCN(CCCCCNC(=O)/C=C/c3ccc(C(F)(F)F)cc3)CC2)cc1Cl`, the IC50 rises from 20 nM to 980 nM (49-fold). The first is the more potent here.

`N#Cc1cc(C(=O)c2cc(Br)ccc2O)cn(C2CCCCC2)c1=O` and `CCCc1nc2c(N3CCCN(C(=O)NC4CCCCC4)CC3)cccc2n1Cc1ccccn1` are within 1.5-fold of each other in IC50: 910 nM for the first, 1160 nM for the second.

In the case of `COc1cc(/C=C/C(=O)NC2CCC(CN3CCC(c4c[nH]c5ccccc45)CC3)CC2)ccc1O` (centres undefined), the IC50 is reported as 810 nM and 790 nM.
